The record followed here is US9850251B2, “Imidazole derivative used as antiviral agent and use therof in preparation of medicament” (priority 2013, dated 2017).

The subject of data set [1] is RSV respiratory tract virus (A long strain). As to the kind of experiment: RSV long CPE assay (cytopathic effect assay), EC50. Format: cell-based. The settings on record: human respiratory syncytial virus, HEp-2, 120 h; Hep2 cells infected with RSV A long strain, 5 days, CCK-8 readout. As for the experimental part: (§1) Detect EC50 and CC50 values of anti RSV respiratory tract virus compounds through the cytopathic effect assay.
Virus strain: RSV respiratory tract virus (A long strain)
(§2) The cell plate was centrifugated (300 rpm) to make the cells adherent to the wall, placed into a 37° C., 5% CO2 incubator overnight.
(§3) 1) the compound in 100% DMSO underwent a semi logarithmic dilution, then was added to the cell plate with a Echo liquid handler. Ensure that the final concentration of DMSO was 1%;
(§4) 2) Cell-control hole: no compound and viruse were added; virus-control hole: no compound was added.
dilute RSV viruses to 100 TCID50/30 μL with medium cultured with 4° C. cells, and then add the diluted viruses to a cell plate (30 μL/hole) with Multidrop® automatic liquid distributor, and then placed into a 37° C., 5% CO2 culture incubator for 5 days.
1) after 5 days, observe the pathological change in each hole.
(§5) 2) add CCK-8 (Dojindo-CK04-20, 6 μL/hole) to 384 well plate with Multidrop® automatic liquid distributor;
(§6) 3) place the plate at a 37° C., 5% CO2 culture incubator for 3˜4 h, read the absorbance value with SPECTRA max 340PC_Molecular device at 450 nm and 630 nm;
(In general: Cytopathic effects are the visible damage that an infection or toxin causes in cultured cells.)

Data set [2] can be described thus: RSV long CPE assay (cytopathic effect assay), CC50 toxicity in vitro. Format: cell-based. The settings on record: human, Hep2 cells, CCK-8 readout, top concentration 100 μM. The procedure:
as §1, §2, §3, §4, §5, §6

By EC50 is commonly meant the concentration that produces a half-maximal response. As usually defined, the CC50 is the concentration at which the toxic effect on the cells reaches its halfway point. High values mean better tolerance by the cells, low ones harm at low concentration. On to `CC(C)OC(=O)N1CC2(C1)C(=O)N(Cc1nc3c(n1CCCC(F)(F)F)CCCC3)c1ccc(Br)cc12` [Embodiment 79, Isopropyl 5′-bromo-2′-oxo-1′-((1-(4,4,4-trifluorobutyl)-4,5,6,7-tetrahydro-1H-benzo[d]imidazol-2-yl)methyl)spiro[azetidine-3,3′-indoline]-1-carboxylate], for which the EC50 in data set [1] is less than 0.1 µM. In data set [2], this compound showed a CC50 at 5 days greater than 100 µM.
The corresponding values for `CC1(C(=O)N2CC3(C2)C(=O)N(Cc2nc4c(n2CCCC(F)(F)F)CCCC4)c2ccccc23)CC1` [Embodiment 91] are less than 0.1 µM and greater than 100 µM.
The corresponding values for `C=CCCn1c(CN2C(=O)C3(CN(C(=O)OC(C)C)C3)c3ccc(Cl)cc32)nc2c1CCCC2` [Embodiment 107, Isopropyl 1′-((1-(but-3-en-1-yl)-4,5,6,7-tetrahydro-1H-benzo[d]imidazol-2-yl)methyl)-6′-chloro-2′-oxospiro[azetidine-3,3′-indoline]-1-carboxylate] are less than 0.1 µM and greater than 100 µM.
In the case of `Cc1nc(CN2C(=O)C3(CN(C(=O)OC(C)C)C3)c3ccccc32)n(CCCCO)c1C` [Embodiment 100, Isopropyl 1′-((1-(4-hydroxybutyl)-4,5-dimethyl-1H-imidazol-2-yl)methyl)-2′-oxospiro[azetidine-3,3′-indoline]-1-carboxylate], the EC50 in data set [1] is less than 0.1 µM. This compound came in with a CC50 at 5 days in data set [2] greater than 100 µM.
In data set [1], `O=C(C1CC1)N1CC2(C1)C(=O)N(Cc1nc3c(n1CCCC(F)(F)F)CCCC3)c1cnccc12` [Embodiment 89, 1-(Cyclopropanecarbonyl)-1′-((1-(4,4,4-trifluorobutyl)-4,5,6,7-tetrahydro-1H-benzo[d]imidazol-2-yl)methyl)spiro[azetidine-3,3′-pyrrolo[2,3-c]pyridine]-2′(1′H)-one] returned an EC50 of less than 0.1 µM. Further, the CC50 at 5 days in data set [2] is greater than 100 µM.
The corresponding values for `CC(C)OC(=O)N1CC2(C1)C(=O)N(Cc1nc3c(n1CCCC(F)(F)F)CCCC3)c1ccccc12` [Embodiment 65, Isopropyl 2′-oxo-1′-((1-(4,4,4-trifluorobutyl)-4,5,6,7-tetrahydro-1H-benzo[d]imidazol-2-yl)methyl)spiro[azetidine-3,3′-indoline]-1-carboxylate] are less than 0.1 µM and greater than 100 µM.
As to `O=C(C(F)F)N1CC2(C1)C(=O)N(Cc1nc3c(n1CCCC(F)(F)F)CCCC3)c1ccccc12` [Embodiment 96, 1-(2,2-Difluoroacetyl)-1′-((1-(4,4,4-trifluorobutyl)-4,5,6,7-tetrahydro-1H-benzo[d]imidazol-2-yl)methyl)spiro[azetidine-3,3′-indoline]-2′-one], the EC50 in data set [1] was less than 0.1 µM. In data set [2], this compound displayed a CC50 at 5 days greater than 100 µM.
The corresponding values for `CC(C)OC(=O)N1CC2(C1)C(=O)N(Cc1nc3c(n1CCCC(F)(F)F)CCC3)c1ccccc12` [Embodiment 102, Isopropyl 2′-oxo-1′-((1-(4,4,4-trifluorobutyl)-1,4,5,6-tetrahydrocyclopenta[d]imidazol-2-yl)methyl)spiro[azetidine-3,3′-indoline]-1-carboxylate] are less than 0.1 µM and greater than 100 µM.
